One test concerns Ovarian cancer cell line. The test is described as follows: Clonogenic survival activity against human ovarian cancer cells (2008, C13*) cells; 0.01-10 range. The test is classed as functional, cell-based.
A short description of test [1]: Concentration required for complete inhibition of relaxation of supercoiled plasmid (form I) at concentrations. The test is classed as functional.
The next test has as its system Nucleic Acid. The test is described as follows: Compound was tested for the induction of DNA strand breaks at concentrations of 0.1 and 0.5 uM; Active. Format: nucleic-acid assay.

Calls of active or inactive are those of the source. The calls are words filed in the database; no cut-off is given here.

In the test on Ovarian cancer cell line, `CNC(=S)N(C)CCNc1c2ccccc2nc2ccccc12` gave an IC50 of 10 nM. This compound also came in with an Inhibition concentration in test [1] of more than 25 µM. The outcome in the test with Nucleic Acid was Active.

As usually defined, the IC50 is the concentration that gives 50% inhibition.

For the origin of these results see ChEMBL document CHEMBL1134912, “Cytotoxic acridinylthiourea and its platinum conjugate produce enzyme-mediated DNA strand breaks” (Bioorg Med Chem Lett, 2002).
